Laboratory results as given in PubChem BioAssay (NCI).
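1) Cells in 96-well plates. 2) Compound, 48 h, 5 concentrations. 3) Linear interpolation between surrounding doses. 4) Unreached endpoint = highest concentration. GI50 is the concentration that inhibits growth by half. Definition used: TGI = concentration required for complete inhibition of growth.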

Columns and labels:
Test in all cases: NCI tumour cell line growth inhibition, 48 h
SNB-78 CNS = system: SNB-78 CNS
DMS 273 small cell lung = system: DMS 273 small cell lung
DLD-1 colon = system: DLD-1 colon
DMS 114 small cell lung = system: DMS 114 small cell lung
KM20L2 colon = system: KM20L2 colon
HOP-18 NSCLC = system: HOP-18 NSCLC
XF 498 CNS = system: XF 498 CNS
RXF-631 renal = system: RXF-631 renal
MDA-N = system: MDA-N
SN12K1 renal = system: SN12K1 renal
P388 leukemia = system: P388 leukemia
P388/ADR leukemia = system: P388/ADR leukemia

Row | SMILES | TGI (SNB-78 CNS) [µM] | TGI (DMS 273 small cell lung) [µM] | TGI (DLD-1 colon) [µM] | TGI (DMS 114 small cell lung) [µM] | TGI (KM20L2 colon) [µM] | TGI (HOP-18 NSCLC) [µM] | TGI (XF 498 CNS) [µM] | TGI (MDA-N) [µM] | also measured
1 | COc1ccc(C2[C@@H](Cl)C(=O)N2c2ccc(OC)cc2)cc1 (stereo partly drawn) | > 100 | > 100 | > 100 | > 100 |  |  |  |  | 
2 | O=c1[nH]c(C2CCCCC2)nc2ccc(Cl)cc12 | > 100 | > 100 |  | > 100 | > 100 |  |  |  | 
3 | OCC1OC(NO)C(O)C(O)C1O (stereo not drawn) | > 100 | > 100 | > 100 |  | > 100 | > 100 | > 100 |  | TGI (RXF-631 renal): > 100 µM
4 | O=S(=O)(O)c1ccc([Se][Se]c2ccc(S(=O)(=O)O)cc2)cc1 | > 100 | > 100 | > 100 | > 100 | > 100 | > 100 | > 100 |  | 
5 | COc1ccc(NC(=O)CC2SC(=Nc3ccc(Cl)cc3C)NC2=O)c([N+](=O)[O-])c1 (stereo not drawn) | > 100 | > 100 | > 100 | > 100 | > 100 |  |  |  | TGI (RXF-631 renal): > 100 µM
6 | COc1cc(OC)c(OC)cc1/C=C/c1ccc2ccccc2n1 |  |  |  |  |  |  |  | > 10 | 
7 | NC(=O)C1CCCN1Cc1ccc2c(c1)OCO2 (stereo not drawn) |  |  |  |  |  |  |  | > 100 | 
8 | CCn1c(C)nc([N+](=O)[O-])c1Sc1ncc[nH]1 | > 100 | > 100 | > 100 | > 100 |  | 73.8 | > 100 |  | TGI (RXF-631 renal): 88 µM
9 | CCCCCCCC(=O)[O-].N.N.N.N.N.[Co+3].[O-][Cl+3]([O-])([O-])[O-] | > 100 | > 100 | > 100 |  | > 100 |  |  |  | GI50 (SNB-78 CNS): > 100 µM; GI50 (DMS 273 small cell lung): > 100 µM; GI50 (DLD-1 colon): > 100 µM; GI50 (KM20L2 colon): > 100 µM
10 | O=S1c2ccccc2N=C(c2cccs2)CC1c1ccccc1O (stereo not drawn) |  |  | > 100 | > 100 | > 100 |  | > 100 |  | TGI (RXF-631 renal): > 100 µM
11 | S=C1NC(c2ccccc2)NC(c2ccccc2)S1 (stereo not drawn) |  |  |  |  |  |  |  | > 100 | 
12 | OC(CBr)C(O)C(O)C(O)CBr (stereo not drawn) | > 100 | > 100 | > 100 | > 100 | > 100 | > 100 | > 100 | > 100 | TGI (SN12K1 renal): > 100 µM; TGI (P388 leukemia): > 32.4 µM; TGI (P388/ADR leukemia): > 51.9 µM
13 | C=C1CC2(CC(c3ccccc3C)OC(c3ccccc3C)C2)OC1=O (stereo not drawn) |  |  |  |  |  |  |  | 3.32 | 
14 | Oc1ccccc1-c1cnnc(-c2ccccc2O)c1 | > 100 |  | > 100 | 38.3 | 84.3 | 96.6 | 32.3 |  | 
15 | COc1ccc(/C=C2\CCC(C)(CN(C)C)C2=O)cc1Br (stereo not drawn) | 86 | 32.2 | 37.4 | 51.9 | 17.7 | > 100 | 33.1 | 41.2 | 
16 | O=S1(=O)CC#CC[C@@H](CO)[C@@H](CO)CC#CC1 | > 100 |  | > 100 |  | > 100 |  | > 100 |  | 
17 | COC(=O)/C(=C1\OC(=O)C(c2ccc(Cl)cc2)=C1O)c1ccc(Cl)cc1 | > 100 | 36.3 | > 100 | 51.3 | 88.4 | > 100 | 36.1 |  | 
18 | O/N=C1/C(=C/c2ccc(Br)cc2)CCCC1C(NO)c1ccc(Br)cc1 (stereo not drawn) | 32.6 | 25.8 |  | 29.6 | 32.5 | 33.8 |  |  | TGI (RXF-631 renal): 30.8 µM
19 | CCN(CC(O)COc1ccc2c(c1)[n+]([O-])nc(N)[n+]2[O-])C(C)=O (stereo not drawn) |  |  |  |  |  |  |  | > 100 | 
20 | O=Cc1cc2sc(C=O)cc2s1 | > 100 | > 100 | > 100 | > 100 | > 100 |  | > 100 |  | TGI (RXF-631 renal): > 100 µM

Row | SMILES | TGI (SNB-78 CNS) [µM] | TGI (DMS 273 small cell lung) [µM] | TGI (DLD-1 colon) [µM] | TGI (DMS 114 small cell lung) [µM] | TGI (KM20L2 colon) [µM] | TGI (HOP-18 NSCLC) [µM] | TGI (XF 498 CNS) [µM] | TGI (MDA-N) [µM] | also measured
21 | Nc1[nH]c(=S)[nH]c(=O)c1N=Nc1c(Br)cc(S(N)(=O)=O)cc1Br |  |  |  |  |  |  |  | > 100 | 
22 | CC1O[C@@H]2CCCCC(=O)[C@]2(C)[C@H]1C (stereo partly drawn) | > 100 | > 100 | > 100 | > 100 | > 100 | > 100 | > 100 |  | TGI (RXF-631 renal): > 100 µM
23 | COc1ccc(CC2OC3(CCCCC3)CC3CCCCN32)cc1 (stereo not drawn) |  |  |  |  |  |  |  | > 100 | 
24 | Cc1cc(NCCCCCCCCNc2cc(C)nc3cc(N(C)C)ccc23)c2ccc(N(C)C)cc2n1 | > 100 | 16.5 |  | 6.63 | 27.3 |  | 7.3 |  | 
25 | Cc1ccccc1C1SCc2nc3ccccc3n21 (stereo not drawn) | > 100 | > 100 | > 100 | > 100 |  | > 100 |  |  | 
26 | O=C(C#Cc1ccccc1)N1CCCCC1 |  |  |  |  |  |  |  | > 100 | 
27 | CC1NCCC(CC(=O)O)C1CC(=O)O (stereo not drawn) |  |  |  |  |  |  |  | > 100 | 
28 | NS(=O)(=O)c1ccc(NC(=O)Nc2cccc3ccccc23)cc1 |  |  |  |  |  |  |  | > 100 | 
29 | C/C(COc1ccccc1)=N\NC(N)=S | > 100 | > 100 | > 100 | > 100 | > 100 |  | > 100 |  | 
30 | CN1C(=O)CC(CC(=O)C2CCCCC2=O)CC1=O (stereo not drawn) | > 100 | > 100 | > 100 | > 100 | > 100 | > 100 | > 100 |  | 
31 | NC1=NN(c2ccccc2)C(=O)C1/C(=N\NC(=O)c1cc2ccccc2cc1O)C(=O)Nc1ccc(Cl)c(Cl)c1 (stereo not drawn) | > 100 | 40.7 | > 100 | 82 | 65.8 | > 100 | 71.6 |  | 
32 | OCC1OC(N2CCN(C3OC(CO)C(O)C(O)C3O)CC2)C(O)C(O)C1O (stereo not drawn) |  |  |  |  |  |  |  | > 100 | 
33 | COC(=O)C1(N2CCOCC2)CCC([C@@H](c2ccccc2)C(C)[N+](=O)[O-])C1 (stereo partly drawn) |  |  |  |  |  |  |  | > 100 | 
34 | CN(N=O)N1C(=O)SCC(c2ccccc2)(c2ccccc2)C1=O |  |  |  |  |  |  |  | > 100 | 
35 | Clc1cc2ns[s+]c2cc1Cl | > 100 | > 100 | > 56.5 | > 100 | > 100 | > 69.3 | > 100 |  | TGI (RXF-631 renal): > 100 µM
36 | O=C(Nc1ccn(C2CCC(COC(c3ccccc3)(c3ccccc3)c3ccccc3)O2)c(=O)n1)c1ccccc1 (stereo not drawn) |  |  |  |  |  |  |  | 10.5 | 
37 | CC1=NN(c2ccccc2)C(=O)C1N=Nc1ccc(Br)cc1C (stereo not drawn) | > 100 | > 100 | > 100 | > 100 | > 100 | > 100 |  |  | TGI (RXF-631 renal): > 100 µM
38 | Cc1c2cc[n+](C)cc2c(C)c2c1[nH]c1ccc(OC(C)(C)C)cc12 | > 100 | > 100 | > 100 | > 100 |  | > 100 |  |  | 
39 | O=C(Nc1ccc(-c2cn3ccccc3n2)cc1)c1cc(Br)ccc1O |  |  |  |  |  |  |  | > 100 | 
40 | O=C(NNC(=O)/C(=C/c1cccc([N+](=O)[O-])c1)NC(=O)c1ccccc1)Nc1ccc(Cl)cc1 | > 100 | 26.1 | 26.7 | 26.9 | 32.4 | 34.6 | 26.6 |  | TGI (RXF-631 renal): 23.8 µM
